Data: ChEMBL document CHEMBL2203176, “Structure-based bioisosterism design, synthesis and biological evaluation of novel 1,2,4-triazin-6-ylthioacetamides as potent HIV-1 NNRTIs” (Bioorg Med Chem Lett, 2012)

Tests used:
[1] = Selectivity index, ratio of CC50 for human MT4 cells to EC50 for HIV2 ROD; assay type: toxicity, cell-based; details: read-out: Ratio CC50/EC50
[2] = Cytotoxicity against human MT4 cells by MTT assay; assay type: cell-based
[3] = tested on: Human immunodeficiency virus 2; assay: Antiviral activity against HIV2 ROD infected in human MT4 cells assessed as inhibition of virus-induced cytopathicity by MTT assay; assay type: functional, organism-based; details: Human immunodeficiency virus 2, ISOLATE ROD
[4] = tested on: Human immunodeficiency virus 1; assay: Antiviral activity against HIV1 3B infected in human MT4 cells assessed as inhibition of virus-induced cytopathicity by MTT assay; assay type: functional, organism-based; details: Human immunodeficiency virus 1, 3B
[5] = Selectivity index, ratio of CC50 for human MT4 cells to EC50 for HIV1 3B; assay type: toxicity, cell-based; details: read-out: Ratio CC50/EC50
[6] = tested on: Human immunodeficiency virus 1; assay: Antiviral activity against HIV1 RES056 harboring reverse transcriptase K103N/Y181C mutant infected in human MT4 cells assessed as inhibition of virus-induced cytopathicity by MTT assay; assay type: functional, organism-based; details: Human immunodeficiency virus 1, RES056, MT4
[7] = Selectivity index, ratio of CC50 for human MT4 cells to EC50 for HIV1 RES056 harboring reverse transcriptase K103N/Y181C mutant; assay type: toxicity, cell-based; details: read-out: Ratio CC50/EC50

SMILES: O=C(CSc1nncnc1-c1cccc2ccccc12)Nc1ccc(Cl)cc1Cl
- selectivity ratio [1]: < 1
- CC50 [2]: 254 µM
- EC50 [3]: > 254 µM
- EC50 [4]: > 254 µM
- selectivity ratio [5]: < 1

SMILES: Cc1ccccc1NC(=O)CSc1nncnc1-c1cccc2ccccc12
- selectivity ratio [1]: < 1
- CC50 [2]: 158 µM
- EC50 [3]: > 158 µM
- EC50 [4]: 0.828 µM
- EC50 [6]: > 158 µM
- selectivity ratio [5]: 194
- selectivity ratio [7]: < 1

SMILES: COC(=O)c1ccc(NC(=O)CSc2nncnc2-c2cccc3ccccc23)c(Br)c1
- selectivity ratio [1]: < 1
- CC50 [2]: 173 µM
- EC50 [3]: > 173 µM
- EC50 [4]: 0.069 µM
- EC50 [6]: 25 µM
- selectivity ratio [5]: 2560
- selectivity ratio [7]: 7

SMILES: CCOC(=O)c1ccc(NC(=O)CSc2nncnc2-c2cccc3ccccc23)c(Br)c1
- selectivity ratio [1]: < 1
- CC50 [2]: 105 µM
- EC50 [3]: > 105 µM
- EC50 [4]: 0.21 µM
- EC50 [6]: > 105 µM
- selectivity ratio [5]: 524
- selectivity ratio [7]: < 1

SMILES: CCOC(=O)c1ccc(NC(=O)CSc2nncnc2-c2cccc3ccccc23)c(Cl)c1
- selectivity ratio [1]: < 1
- CC50 [2]: 150 µM
- EC50 [3]: > 150 µM
- EC50 [4]: 0.205 µM
- EC50 [6]: > 150 µM
- selectivity ratio [5]: 729
- selectivity ratio [7]: < 1

SMILES: O=C(CSc1nncnc1-c1cccc2ccccc12)Nc1ccc([N+](=O)[O-])cc1Cl
- selectivity ratio [1]: < 1
- CC50 [2]: 150 µM
- EC50 [3]: > 150 µM
- EC50 [4]: > 150 µM
- selectivity ratio [5]: < 1

SMILES: O=C(CSc1nncnc1-c1cccc2ccccc12)N1CCc2ccccc2C1
- selectivity ratio [1]: < 1
- CC50 [2]: 13 µM
- EC50 [3]: > 13 µM
- EC50 [4]: 0.751 µM
- EC50 [6]: > 13 µM
- selectivity ratio [5]: 17
- selectivity ratio [7]: < 1

SMILES: Cc1cnc(NC(=O)CSc2nncnc2-c2ccccc2Cl)c(Br)c1
- selectivity ratio [1]: < 1
- CC50 [2]: 144 µM
- EC50 [3]: > 144 µM
- EC50 [4]: > 31 µM
- selectivity ratio [5]: < 1

SMILES: Cc1ccc2sc(NC(=O)CSc3nncnc3-c3ccccc3Cl)nc2c1
- selectivity ratio [1]: < 1
- CC50 [2]: 137 µM
- EC50 [3]: > 32 µM
- EC50 [4]: > 32 µM
- selectivity ratio [5]: < 1

SMILES: O=C(CSc1nncnc1-c1ccccc1Cl)c1ccc(Br)cc1Br
- selectivity ratio [1]: < 1
- CC50 [2]: 28 µM
- EC50 [3]: > 28 µM
- EC50 [4]: > 28 µM
- selectivity ratio [5]: < 1

SMILES: O=C(CSc1nncnc1-c1ccccc1Cl)c1ccc(Cl)c(Cl)c1
- selectivity ratio [1]: < 1
- CC50 [2]: 33 µM
- EC50 [3]: > 33 µM
- EC50 [4]: 6.2 µM
- EC50 [6]: > 33 µM
- selectivity ratio [5]: 5

SMILES: O=C(CSc1nncnc1-c1ccccc1Cl)N1CCCc2ccccc21
- selectivity ratio [1]: < 1
- CC50 [2]: 35 µM
- EC50 [3]: > 35 µM
- EC50 [4]: > 35 µM
- selectivity ratio [5]: < 1

SMILES: O=C(CSc1nncnc1-c1cccc2ccccc12)Nc1cccnc1Cl
- selectivity ratio [1]: < 1
- CC50 [2]: 44 µM
- EC50 [3]: > 44 µM
- EC50 [4]: 0.059 µM
- EC50 [6]: 7 µM
- selectivity ratio [5]: 751
- selectivity ratio [7]: 6

SMILES: O=C(CSc1nncnc1-c1ccccc1Cl)Nc1ccccc1Cl
- selectivity ratio [1]: < 1
- EC50 [3]: > 90 µM
- EC50 [6]: ≥ 55 µM
- selectivity ratio [7]: ≤ 2

SMILES: CC(C)Nc1cccnc1N1CCN(C(=O)c2cc3cc(NS(C)(=O)=O)ccc3[nH]2)CC1 [DELAVIRDINE]
- CC50 [2]: > 36 µM
- EC50 [4]: 0.032 µM
- EC50 [6]: > 36 µM
- selectivity ratio [7]: < 1

SMILES: O=C1Nc2ccc(Cl)cc2[C@@](C#CC2CC2)(C(F)(F)F)O1 [EFAVIRENZ]
- CC50 [2]: > 6.3 µM

SMILES: Cc1ccnc2c1NC(=O)c1cccnc1N2C1CC1 [NEVIRAPINE]
- CC50 [2]: > 15 µM
- EC50 [6]: 11 µM

SMILES: Nc1ccn([C@H]2CC[C@@H](CO)O2)c(=O)n1 [ZALCITABINE]
- selectivity ratio [1]: > 74
- CC50 [2]: > 95 µM
- EC50 [3]: 1.3 µM
- EC50 [4]: 1 µM
- selectivity ratio [5]: 68

SMILES: Cc1cn([C@H]2C[C@H](N=[N+]=[N-])[C@@H](CO)O2)c(=O)[nH]c1=O [ZIDOVUDINE]
- selectivity ratio [1]: 56900
- EC50 [3]: 0.004 µM
- EC50 [6]: 0.009 µM
- selectivity ratio [5]: 8300
- selectivity ratio [7]: 29600
